Like-named read-outs stand apart in the source and are kept apart here.
Legend:
[1] = test system: promyelocytic leukemia HL 60
CDK2/cyclin E = CDK2/cyclin E (Homo sapiens, UniProt P24941); test: CDK inhibition assay, CDK2/cyclin E
breast carcinoma MCF7 [2] = test system: breast carcinoma MCF7
CDK1/cyclin B = CDK1/cyclin B (Homo sapiens, UniProt P06493); test: CDK inhibition assay, CDK1/cyclin B
[3] = test system: human malignant melanoma G 361
[4] = test system: human erythroleukaemia K562
[5] = test system: human T-lymphoblastoid leukaemic cell line CEM
[6] = test system: normal human fibroblasts BJ
[7] = test system: cervical carcinoma cells HELA
CDK9/cyclin T = CDK9/cyclin T (Homo sapiens, UniProt P50750); test: CDK inhibition assay, CDK9/cyclin T
[8] = test system: human osteogenic sarcoma HOS
[9] = test system: p53-responsive reporter pRGCΔfoslacZ in human melanoma cell line Arn8; test: p53-dependent transcriptional activity, β-galactosidase reporter in Arn8 cells; conditions: concentration inducing maximum of β-galactosidase activity (p53-responsive reporter)
HSV-1-deltaTK = test: Plaque number reduction assay, HSV-1-deltaTK on HFFF; assay type: cell-based; conditions: HSV-1 thymidine kinase (TK) deletion mutant on HFFF
VV = assay type: cell-based, Vaccinia virus strain WR; conditions: Vaccinia virus on HFFF
[10] = test system: human erythroleukaemia K562; test: In vitro cytotoxic activity (Calcein AM, 72 hours), K562; conditions: K562, 72 h, read-out: Cytotoxicity IC50 K-562
[11] = test system: cervical carcinoma cells HELA; test: In vitro cytotoxic activity (Calcein AM, 72 hours), HELA; conditions: Homo sapiens, read-out: Cytotoxicity IC50 HeLa
[12] = test system: human T-lymphoblastoid leukaemic cell line CEM; test: In vitro cytotoxic activity (Calcein AM, 72 hours), CEM; conditions: read-out: Cytotoxicity IC50 CEM
breast carcinoma MCF7 [13] = test: In vitro cytotoxic activity (Calcein AM, 72 hours), MCF7; conditions: Homo sapiens, MCF7, 72 h, read-out: Cytotoxicity IC50 MCF7
[14] = test system: human malignant melanoma G 361; test: In vitro cytotoxic activity (Calcein AM, 72 hours), G 361; conditions: G-361, 72 h, read-out: Cytotoxicity IC50 G361
[15] = In vitro cytotoxic activity (Calcein AM, 72 hours), BJ; conditions: human, BJ normal fibroblasts
[16] = test system: human osteogenic sarcoma HOS; test: In vitro cytotoxic activity (Calcein AM, 72 hours), HOS; conditions: read-out: Cytotoxicity IC50 HOS
[17] = test system: promyelocytic leukemia HL 60; test: In vitro cytotoxic activity (Calcein AM, 72 hours), HL 60; conditions: Homo sapiens, HL-60, 72 h, read-out: Cytotoxicity IC50 HL60
[18] = read-out: IC50 CDK2, CDK2/cyclin E, 15 μM ATP, histone substrate
[19] = read-out: IC50 CDK1, CDK1/cyclin B, 15 μM ATP, histone substrate
[20] = read-out: IC50 CDK9, CDK9/cyclin T, 15 μM ATP, histone substrate

Sequence of CDK9/cyclin T (P50750 whole entry, species assumed): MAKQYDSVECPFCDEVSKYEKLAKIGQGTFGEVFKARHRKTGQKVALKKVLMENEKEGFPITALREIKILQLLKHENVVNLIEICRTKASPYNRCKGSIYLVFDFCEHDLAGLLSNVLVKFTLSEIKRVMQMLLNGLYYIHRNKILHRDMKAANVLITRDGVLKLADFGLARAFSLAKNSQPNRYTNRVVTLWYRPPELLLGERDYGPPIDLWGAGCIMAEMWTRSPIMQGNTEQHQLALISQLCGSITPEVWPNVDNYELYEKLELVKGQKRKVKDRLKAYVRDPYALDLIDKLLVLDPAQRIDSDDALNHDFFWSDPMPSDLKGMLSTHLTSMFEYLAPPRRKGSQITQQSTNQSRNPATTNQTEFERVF
Sequence of CDK9/cyclin T (O60563 whole entry partner, species assumed): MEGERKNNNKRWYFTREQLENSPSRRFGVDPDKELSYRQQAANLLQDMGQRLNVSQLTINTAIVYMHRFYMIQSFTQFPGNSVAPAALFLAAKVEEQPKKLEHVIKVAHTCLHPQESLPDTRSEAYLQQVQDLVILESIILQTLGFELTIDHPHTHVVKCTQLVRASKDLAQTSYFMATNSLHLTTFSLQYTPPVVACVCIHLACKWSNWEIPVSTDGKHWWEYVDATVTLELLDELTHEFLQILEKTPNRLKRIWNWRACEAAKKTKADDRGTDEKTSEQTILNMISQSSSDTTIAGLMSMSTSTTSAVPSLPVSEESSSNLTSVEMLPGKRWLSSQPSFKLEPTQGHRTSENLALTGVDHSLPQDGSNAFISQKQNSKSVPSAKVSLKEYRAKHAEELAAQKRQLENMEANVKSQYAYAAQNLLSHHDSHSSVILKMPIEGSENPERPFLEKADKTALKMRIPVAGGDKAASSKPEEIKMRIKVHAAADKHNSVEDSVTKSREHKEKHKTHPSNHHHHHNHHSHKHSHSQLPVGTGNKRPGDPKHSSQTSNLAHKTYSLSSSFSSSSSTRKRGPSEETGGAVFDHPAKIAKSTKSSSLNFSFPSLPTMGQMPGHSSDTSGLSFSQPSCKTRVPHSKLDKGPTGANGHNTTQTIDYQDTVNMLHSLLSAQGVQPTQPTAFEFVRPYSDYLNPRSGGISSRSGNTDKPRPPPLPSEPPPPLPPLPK
Sequence of CDK1/cyclin B (P06493 whole entry, species assumed): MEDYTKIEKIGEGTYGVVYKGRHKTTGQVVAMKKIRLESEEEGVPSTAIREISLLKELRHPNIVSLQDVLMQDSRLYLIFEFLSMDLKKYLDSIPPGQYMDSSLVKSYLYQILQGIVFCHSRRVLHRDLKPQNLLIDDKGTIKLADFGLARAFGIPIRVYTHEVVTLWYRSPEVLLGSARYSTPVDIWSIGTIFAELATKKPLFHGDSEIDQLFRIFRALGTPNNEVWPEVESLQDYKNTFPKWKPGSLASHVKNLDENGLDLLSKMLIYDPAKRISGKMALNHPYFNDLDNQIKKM
Sequence of CDK1/cyclin B (P14635 whole entry partner, species assumed): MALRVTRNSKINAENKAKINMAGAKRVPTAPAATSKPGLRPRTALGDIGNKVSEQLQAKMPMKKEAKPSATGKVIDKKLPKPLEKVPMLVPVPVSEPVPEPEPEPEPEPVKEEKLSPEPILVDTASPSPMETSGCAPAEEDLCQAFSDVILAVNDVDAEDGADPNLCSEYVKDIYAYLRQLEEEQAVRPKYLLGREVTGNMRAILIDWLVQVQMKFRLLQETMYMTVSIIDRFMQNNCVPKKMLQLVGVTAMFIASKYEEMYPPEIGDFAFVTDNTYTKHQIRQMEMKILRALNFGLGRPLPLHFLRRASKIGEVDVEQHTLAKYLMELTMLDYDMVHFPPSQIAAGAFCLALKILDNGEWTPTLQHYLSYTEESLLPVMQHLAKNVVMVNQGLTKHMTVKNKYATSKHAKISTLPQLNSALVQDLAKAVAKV

Cn1cnc2c(NCc3ccccc3)nc(NC3CCC(N)CC3)nc21 (centres unmarked) [Compound A1141]
IC50 [1]: 75 µM
IC50 (CDK2/cyclin E; [18]): 3.4 µM
IC50 (breast carcinoma MCF7 [2]): 55 µM
IC50 (CDK1/cyclin B; [19]): 3.1 µM
IC50 [3]: 74 µM
IC50 [4]: 91 µM
IC50 [5]: 43 µM
IC50 [6]: > 167 µM
IC50 [7]: 48 µM
IC50 (CDK9/cyclin T; [20]): 3.3 µM
IC50 [8]: 86 µM

CC(C)n1cnc2c(NCc3cc(N)ccc3N)nc(NC3CCC(O)CC3)nc21 (centres unmarked) [Compound 161]
IC50 [1]: 26 µM
IC50 (CDK2/cyclin E; [18]): 0.6 µM
IC50 (breast carcinoma MCF7 [2]): 7 µM
Max. β-Gal. Activtity Conc. [9]: 20 µM
IC50 (CDK1/cyclin B; [19]): 0.9 µM
IC50 [3]: 14 µM
IC50 [4]: 18 µM
IC50 [5]: 9 µM
IC50 [6]: > 167 µM
IC50 [7]: 12 µM
IC50 (CDK9/cyclin T; [20]): 0.08 µM
IC50 [8]: 26 µM

Nc1nc2c(ncn2COCCO)c(=O)[nH]1 [Acyclovir, 9-[(2-Hydroxyethoxy)methyl]guanine, reference compound]
inhibition of virus replication (in words) (HSV-1-deltaTK): resistant

O=c1[nH]c(=O)n([C@H]2C[C@H](O)[C@@H](CO)O2)cc1I [Iododeoxyuridine, 1-(2-Deoxy-β-D-ribofuranosyl)-5-iodouracil]
inhibition of virus replication (in words) (VV): inhibited equally well

CC(O)CNc1nc(NCc2ccccc2)c2ncn(C(C)C)c2n1 (centres unmarked) [Compound A216]
IC50 [1]: 59 µM
IC50 (CDK2/cyclin E; [18]): 1.5 µM
IC50 (breast carcinoma MCF7 [2]): 30.4 µM
IC50 [3]: 44 µM
IC50 [4]: 80 µM
IC50 [5]: 27 µM
IC50 [6]: > 167 µM
IC50 [7]: 36 µM
IC50 (CDK9/cyclin T; [20]): 1.3 µM
IC50 [8]: 58 µM

CC(C)n1cnc2c(NCc3ccccc3N)nc(NC3CCCCC3N)nc21 (centres unmarked) [Compound 101]
IC50 [1]: 24 µM
IC50 (CDK2/cyclin E; [18]): 0.4 µM
IC50 (breast carcinoma MCF7 [2]): 15.3 µM
Max. β-Gal. Activtity Conc. [9]: 22 µM
IC50 (CDK1/cyclin B; [19]): 0.6 µM
IC50 [3]: 14 µM
IC50 [4]: 27 µM
IC50 [5]: 7 µM
IC50 [6]: > 167 µM
IC50 [7]: 15 µM
IC50 (CDK9/cyclin T; [20]): 0.02 µM
IC50 [8]: 25 µM

CC(O)CNc1nc(NCc2ccccc2N)c2ncn(C(C)C)c2n1 (centres unmarked) [Compound 104, 1-({6-[(2-aminobenzyl)amino]-9-isopropyl-9H-purin-2-yl}amino)propan-2-ol]
IC50 [10]: 26 µM
IC50 [11]: 15 µM
IC50 [12]: 17 µM
IC50 (CDK2/cyclin E): 0.03 µM
IC50 (breast carcinoma MCF7 [13]): 15.4 µM
Max. β-Gal. Activtity Conc. [9]: 12 µM
IC50 [14]: 19 µM
IC50 at 72 h [15]: > 167 µM
IC50 (CDK1/cyclin B): 0.09 µM
IC50 [16]: 31 µM
IC50 (CDK9/cyclin T): 0.006 µM
IC50 [17]: 29 µM

CCC(CO)Nc1nc(NCc2cc(Cl)ccc2N)c2ncn(C(C)C)c2n1 (centres unmarked) [Compound 118]
IC50 [10]: 8.4 µM
IC50 [11]: 1.6 µM
IC50 [12]: 3.2 µM
IC50 (CDK2/cyclin E): 0.01 µM
IC50 (breast carcinoma MCF7 [13]): 1.8 µM
Max. β-Gal. Activtity Conc. [9]: 18 µM
IC50 [14]: 6 µM
IC50 at 72 h [15]: > 167 µM
IC50 (CDK1/cyclin B): 0.08 µM
IC50 [16]: 7.6 µM
IC50 (CDK9/cyclin T): 0.002 µM
IC50 [17]: 5.4 µM

CC(C)C(CO)Nc1nc(NCc2ccccc2)c2ncn(C(C)C)c2n1 (centres unmarked) [Compound A2161]
IC50 [1]: 18 µM
IC50 (breast carcinoma MCF7 [2]): 5.9 µM
IC50 [3]: 11.5 µM
IC50 [4]: 15.4 µM
IC50 [5]: 4.3 µM
IC50 [6]: > 167 µM
IC50 [7]: 6.5 µM
IC50 (CDK9/cyclin T; [20]): 0.5 µM
IC50 [8]: 22 µM

CC(C)C(CO)Nc1nc(NCc2ccccc2N)c2ncn(C)c2n1 (centres unmarked) [Compound 7]
IC50 [10]: 5 µM
IC50 [11]: 1 µM
IC50 [12]: 0.9 µM
IC50 (CDK2/cyclin E): 0.01 µM
IC50 (breast carcinoma MCF7 [13]): 1.5 µM
Max. β-Gal. Activtity Conc. [9]: 25 µM
IC50 [14]: 1.2 µM
IC50 at 72 h [15]: > 167 µM
IC50 (CDK1/cyclin B): 0.04 µM
IC50 [16]: 0.8 µM
IC50 (CDK9/cyclin T): 0.001 µM
IC50 [17]: 2.4 µM

Cn1cnc2c(NCc3ccccc3N)nc(NC3CCC(N)CC3)nc21 (centres unmarked) [Compound 2]
IC50 [10]: 36 µM
IC50 [11]: 12 µM
IC50 [12]: 9 µM
IC50 (CDK2/cyclin E): 0.4 µM
IC50 (breast carcinoma MCF7 [13]): 10 µM
Max. β-Gal. Activtity Conc. [9]: 37 µM
IC50 [14]: 14 µM
IC50 at 72 h [15]: > 167 µM
IC50 (CDK1/cyclin B): 0.7 µM
IC50 [16]: 20 µM
IC50 (CDK9/cyclin T): 0.01 µM
IC50 [17]: 22 µM
